Test results as given in patent US20230066946A1, “1,5-DIPHENYLPYRAZOLYL-3-OXYALKYL ACIDS AND 1-PHENYL-5-THIENYLPYRAZOLYL-3-OXYALKYL ACIDS AND THE USE THEREOF FOR CONTROL OF UNWANTED PLANT GROWTH” (Bayer Aktiengesellschaft, priority 2019, published 2023).

Assays:
PHBPU = assay: Post-emergence herbicidal action against PHBPU; assay type: in vivo, Pharbitis purpurea; conditions: 320 g/ha, visual rating about 3 weeks after treatment
Experimental: (§1) [table] Seeds of mono- and dicotyledonous weed plants are placed in plastic pots in sandy loam soil (twin sowing with one species each of mono- or dicotyledonous weed plants per pot), covered with soil and cultivated in a greenhouse under controlled growth conditions. 2 to 3 weeks after sowing, the test plants are treated at the one-leaf stage. The compounds of the invention, formulated in the form of wettable powders (WP) or as emulsion concentrates (EC), are applied to the green parts of the plants as aqueous suspension or emulsion with addition of 0.5% additive at a water application rate equivalent to 600 litres per hectare. After the test plants have been kept in the greenhouse under optimum growth conditions for about 3 weeks, the activity of the preparations is rated visually in comparison to untreated controls. For example, 100% activity=the plants have died, 0% activity=like control plants. Tables 5.1-5.16 below show the effects of selected compounds of the general formula (I) according to Tables 1 to 3 on various harmful plants at an application rate corresponding to 1280 or 320 g/ha, which have been obtained by the aforementioned experimental method.

POLCO [1] = assay: Pre-emergence herbicidal action against POLCO; assay type: in vivo, Polygonum convolvulus; conditions: 320 g/ha, scored visually after about 3 weeks vs untreated controls
Source text: (§2) Seeds of mono- and dicotyledonous weed plants are placed in plastic pots in sandy loam soil (doubly sown with one species each of mono- or dicotyledonous weed plants per pot) and covered with soil. The compounds of the invention, formulated in the form of wettable powders (WP) or as emulsion concentrates (EC), are then applied onto the surface of the covering soil as aqueous suspension or emulsion with addition of 0.5% additive at a water application rate equivalent to 600 litres per hectare. After the treatment, the pots are placed in a greenhouse and kept under good growth conditions for the trial plants. After about 3 weeks, the effect of the preparations is scored visually in comparison with untreated controls as percentages. For example, 100% activity=the plants have died, 0% activity=like control plants. [table] Tables 4.1-4.15 below show the effects of selected compounds of the general formula (I) according to Tables 1 to 3 on various harmful plants at an application rate corresponding to 1280 or 320 g/ha, which have been obtained by the aforementioned experimental method.

STEME [2] = assay: Pre-emergence herbicidal action against STEME; assay type: in vivo, Stellaria media; conditions: scored visually after about 3 weeks vs untreated controls
Summary of the method: (§3)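 Greenhouse pot test on sown, soil-covered weed seeds; spray of WP or EC formulation at 1280 or 320 g/ha onto covering soil. Effect rated visually after about 3 weeks (0% = like control, 100% = dead).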

AMARE [3] = assay: Pre-emergence herbicidal action against AMARE; assay type: in vivo, Amaranthus retroflexus; conditions: scored visually after about 3 weeks vs untreated controls; for Pre-emergence action at 320 g/ha against AMARE in %: 100% = plants have died, 0% = like control plants; for Pre-emergence action against AMARE in %: 1280 g/ha
Summary of the method: as §3

SETVI [4] = assay: Pre-emergence herbicidal action against SETVI; assay type: in vivo, Setaria viridis; conditions: 1280 g/ha, scored visually after about 3 weeks vs untreated controls
Summary of the method: as §3

SETVI [5] = assay: Post-emergence herbicidal action against SETVI; assay type: in vivo, Setaria viridis; conditions: 1280 g/ha, post-emergence at one-leaf stage, rated visually after about 3 weeks vs untreated controls
Experimental: as §1

MATIN = assay: Post-emergence herbicidal action against MATIN; assay type: in vivo, Matricaria inodora; conditions: visual rating about 3 weeks after treatment
Summary of the method: (§4)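 Visual scoring, where 100% = dead and 0% = like untreated plants, was done about 3 weeks after treatment. Dose was 1280 or 320 g/ha, delivered as aqueous WP/EC suspension or emulsion with 0.5% additive at 600 L/ha. Pot-grown weeds in sandy loam were treated post-emergence at one leaf, 2-3 weeks post-sowing.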

VERPE [6] = assay: Post-emergence herbicidal action against VERPE; assay type: in vivo, Veronica persica; conditions: 320 g/ha, visual rating about 3 weeks after treatment
Experimental: as §1

POLCO [7] = assay: Post-emergence herbicidal action against POLCO; assay type: in vivo, Polygonum convolvulus; conditions: 320 g/ha, visual rating about 3 weeks after treatment
Experimental: as §1

VERPE [8] = assay: Pre-emergence herbicidal action against VERPE; assay type: in vivo, Veronica persica; conditions: 320 g/ha, scored visually after about 3 weeks vs untreated controls
Source text: as §2

AMARE [9] = assay: Post-emergence herbicidal action against AMARE; assay type: in vivo, Amaranthus retroflexus; conditions: visual rating about 3 weeks after treatment
Summary of the method: as §4

ECHCG [10] = assay: Post-emergence herbicidal action against ECHCG; assay type: in vivo, Echinochloa crus-galli; conditions: 1280 g/ha, post-emergence at one-leaf stage, rated visually after about 3 weeks vs untreated controls
Experimental: as §1

STEME [11] = assay: Post-emergence herbicidal action against STEME; assay type: in vivo, Stellaria media; conditions: visual rating about 3 weeks after treatment
Summary of the method: as §4

VIOTR = assay: Post-emergence herbicidal action against VIOTR; assay type: in vivo, Viola tricolor; conditions: 320 g/ha, visual rating about 3 weeks after treatment
Experimental: as §1

ECHCG [12] = assay: Pre-emergence herbicidal action against ECHCG; assay type: in vivo, Echinochloa crus-galli; conditions: scored visually after about 3 weeks vs untreated controls, 100% = plants have died, 0% = like control plants
Summary of the method: as §3

| Structure (SMILES) | Post-emergence action against PHBPU in % (PHBPU) [%] | Pre-emergence action against POLCO in % (POLCO [1]) [%] | Pre-emergence action against STEME in % (STEME [2]; 320 g/ha) [%] | Pre-emergence action against STEME in % (STEME [2]; 1280 g/ha) [%] | Pre-emergence action at 320 g/ha against AMARE in % (AMARE [3]) [%] | Pre-emergence action against AMARE in % (AMARE [3]) [%] | Pre-emergence action against SETVI in % (SETVI [4]) [%] | Post-emergence action against SETVI in % (SETVI [5]) [%] | Post-emergence action against MATIN in % (MATIN; 320 g/ha) [%] | Post-emergence action against MATIN in % (MATIN; 1280 g/ha) [%] | Post-emergence action against VERPE in % (VERPE [6]) [%] | Post-emergence action against POLCO in % (POLCO [7]) [%] | Pre-emergence action against VERPE in % (VERPE [8]) [%] | Post-emergence action against AMARE in % (AMARE [9]; 320 g/ha) [%] | Post-emergence action against AMARE in % (AMARE [9]; 1280 g/ha) [%] | Post-emergence action against ECHCG in % (ECHCG [10]) [%] | Post-emergence action against STEME in % (STEME [11]; 320 g/ha) [%] | Post-emergence action against STEME in % (STEME [11]; 1280 g/ha) [%] | Post-emergence action against VIOTR in % (VIOTR) [%] | Pre-emergence action at 1280 g/ha against ECHCG in % (ECHCG [12]) [%] |
| --- | --- | --- | --- | --- | --- | --- | --- | --- | --- | --- | --- | --- | --- | --- | --- | --- | --- | --- | --- | --- |
| CCOC(=O)COc1nn(-c2ccc(F)cc2F)c(-c2ccc(F)cc2)c1Br [I-081] | 90 | 100 | 80 | 100 | 80 | 100 | 100 | 90 | 80 | 100 | 80 | 80 | 80 | 90 | 100 | 90 | 80 | 100 | 100 | 90 |
| COC(=O)COc1nn(-c2ccccc2)c(-c2ccc(F)cc2)c1Br [I-101] | 90 | 100 |  | 100 | 90 | 90 | 100 |  | 90 | 90 | 80 |  |  | 80 | 100 |  |  |  | 100 | 100 |
| O=C(O)COc1nn(-c2ccccc2F)c(-c2ccccc2)c1Br [I-082] | 90 | 80 |  |  | 90 |  |  |  | 80 |  | 80 |  | 80 | 80 |  |  |  |  | 100 |  |
| COC(=O)COc1nn(-c2ccc(Cl)cc2)c(-c2ccccc2)c1Cl [I-001] |  | 90 |  |  |  |  |  |  |  |  |  |  |  |  |  |  |  |  |  |  |
| CCOC(=O)COc1nn(-c2ccc(F)cc2F)c(-c2ccccc2)c1Br [I-079] | 90 | 80 |  | 100 | 80 | 100 | 100 | 100 | 80 | 100 | 80 | 80 |  | 80 | 100 | 100 |  | 100 | 100 | 90 |
| C[Si](C)(C)COC(=O)COc1nn(-c2ccccc2F)c(-c2ccc(F)c(F)c2)c1Br [I-102] | 90 | 100 | 90 | 90 | 90 | 100 | 100 |  | 80 | 100 | 80 |  | 80 | 80 | 90 |  |  | 100 | 90 | 100 |
| C#CCNC(=O)COc1nn(-c2ccccc2)c(-c2ccc(F)cc2)c1Br [III-006] | 80 | 90 |  | 100 | 90 | 90 | 100 |  |  |  | 80 |  | 90 | 80 | 100 |  |  |  | 80 | 100 |
| C=CCNC(=O)COc1nn(-c2ccc(F)cc2)c(-c2cccc(F)c2)c1Br [III-015] | 80 | 90 |  | 100 |  | 100 | 100 |  |  |  | 90 | 80 | 90 | 80 |  |  |  |  | 80 | 100 |
